The record followed here is patent US5716528A, “Peroxide water treatment process” (Domtar Inc., priority 1995, dated 1998).

Each structure is given as a SMILES string.

A short description of assay [1]: Effect of peroxide/penta weight ratios on the oxidation of pentachlorophenol. Particulars: Fe2+/H2O2 3%, pH 3.5. The method, then:
a) Effect of peroxide/penta weight ratios on the oxidation of pentachlorophenol
Appropriate amounts of technical grade pentachlorophenol were dissolved in deionized water (the pH of which was kept at 8 to 9 with 5% NaOH solution) to yield solutions containing 19.0, 38.1, 66.6 and76.2 ppm pentachlorophenol.
100 ml of each of the above solutions was placed in each of four 100 ml beakers.
157.5 mg H2 O2 (≈0.42 ml of 35% solution) were added to each beaker to give peroxide/penta weight ratios of 82.7, 41.3, 27.6 and 20.7, respectively.
4.74 mg of Fe^2+ (≈0.85 ml of 0.1 molar solution of ferrous sulphate heptahydrate) were then added to give a constant Fe^2+ /H2 O2 weight ratio of 3% in each beaker.

A short description of assay [2]: Field trials: peroxide oxidation of wood preserving wastewater, then carbon adsorption. The method, then:
In field trials 900 liter samples of wood preserving wastewater of known Chemical Oxygen Demand (COD) was treated as follows:
This antifoam agent was added because foaming was expected in view of the large volume of waste water being treated.
An amount of Fe^2+ (as 0.1M or 1M ferrous sulphate heptahydrate) equivalent to 5-7% of the total H2 O2 by weight was added with fast agitation. The pH was kept at 3-3.8 at a temperature of 40°±5° C.
The reaction was judged complete when the colour of the reaction mixture turned light yellow similar to that of a ferric ions solution (3-3.5 hrs.)
The catalyst was separated by co-precipitation with alum or poly electrolytes.

For `Oc1c(Cl)c(Cl)c(Cl)c(Cl)c1Cl` [Pentachlorophenol, pentachlorophenol], the PCP destruction is reported as 96.2% in assay [1] (PCP 19.0 ppm, H2O2/PCP ratio 82.7); 98.2% in assay [1] (PCP 38.1 ppm, H2O2/PCP ratio 41.3); 98.9% in assay [1] (PCP 66.6 ppm, H2O2/PCP ratio 27.6); 95.9% in assay [1] (PCP 76.2 ppm, H2O2/PCP ratio 20.7). Moreover, in assay [2] (field trial), the “removed after oxidation followed by carbon adsorption” value is given as more than 99.3%. The “removed after oxidation only” value in assay [2] (field trial) is recorded as 92.60-98.75%. Also, the “destruction levels of contaminants by oxidation” value in assay [2] (summary of process) is approximately 99.9%.
